What was measured:
[1] = design: method as in PMID 25747980; conditions: mice; oral administration of 100 mg/kg sauchinone; read-out: Cmax in mice plasma; cited from earlier work
[2] = biological target: T1, UGT1A6 (Homo sapiens, UniProt P19224); test: Enzyme kinetic assay (Ki, Dixon plot) of UGT1A6-mediated serotonin glucuronidation; format: in vitro ADME; conditions: for inhibition mode on UGT1A6: Dixon plot, visual inspection
T1 construct: tissue Corning Life Sciences 452156; host or cells: pooled human liver microsomes
T1 sequence (P19224 27-532): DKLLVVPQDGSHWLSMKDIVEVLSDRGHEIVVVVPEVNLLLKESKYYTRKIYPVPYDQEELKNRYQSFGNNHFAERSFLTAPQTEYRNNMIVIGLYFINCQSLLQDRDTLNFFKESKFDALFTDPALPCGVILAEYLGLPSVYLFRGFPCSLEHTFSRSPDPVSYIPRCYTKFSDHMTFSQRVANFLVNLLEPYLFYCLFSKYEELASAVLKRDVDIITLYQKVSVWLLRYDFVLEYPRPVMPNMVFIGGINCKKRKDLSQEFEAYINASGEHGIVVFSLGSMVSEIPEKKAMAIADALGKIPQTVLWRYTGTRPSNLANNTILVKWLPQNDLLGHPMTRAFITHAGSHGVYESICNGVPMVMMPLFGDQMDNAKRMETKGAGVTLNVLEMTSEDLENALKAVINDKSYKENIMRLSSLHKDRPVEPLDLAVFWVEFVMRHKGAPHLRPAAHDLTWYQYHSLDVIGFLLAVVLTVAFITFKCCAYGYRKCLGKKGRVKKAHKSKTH
Description: Inhibitory effects of sauchinone on UGT1A1, 1A3, 1A4, 1A6, 1A9, and 2B7 activities were evaluated using HLMs. […] Spiked volume of UGT cocktail set was 1% (v/v) of total volume of mixture. […] The reaction was initiated by adding 5 mM UDPGA to a final volume of 150 μL and incubated at 37 °C for 15 or 60 min in a thermomixer at 500 rpm. Each reaction was stopped by adding 150 μL of ice-cold methanol containing 50 ng/mL IS. These mixtures were then centrifuged (12,000 rpm for 10 min at 4 °C) and 5 μL of the supernatant was injected into a UPLC-MS/MS system. […] Their IC50 values were compared to that of sauchinone. All inhibitors were dissolved in methanol (except for hecogenin, which was dissolved in dimethyl sulfoxide) and serially diluted to the required concentrations using the same solutions. The final concentration of organic solvent of inhibitors was 1% (v/v). All studies were performed in triplicate and mean values were used in the analysis. The half maximal inhibition constant (IC50) of sauchinone on UGT isoforms was estimated using GraphPad program.
Based on IC50 values, Ki values of sauchinone for UGT1A6 and 2B7 were determined. Concentrations of 0–200 μM of sauchinone were used. Other procedures were similar to those mentioned above in the study of reversible inhibitory effects of sauchinone. Inhibitory characteristics of sauchinone were initially estimated by nonlinear least squares regression analysis and Ki values were determined by Dixon plots.

[3] = biological target: T2, Ugt1a1 (Mus musculus, UniProt Q63886); test: Inhibition of Ugt1a1 (β-estradiol) in mice liver microsomes; format: in vitro ADME; conditions: pH 7.6, probe β-estradiol (10 μM, in UGT substrate cocktail), read-out: IC50 of Ugt1a1-catalyzed β-estradiol
T2 construct: from tissue; host or cells: mouse liver microsomes prepared in house
T2 sequence (Q63886 30-535): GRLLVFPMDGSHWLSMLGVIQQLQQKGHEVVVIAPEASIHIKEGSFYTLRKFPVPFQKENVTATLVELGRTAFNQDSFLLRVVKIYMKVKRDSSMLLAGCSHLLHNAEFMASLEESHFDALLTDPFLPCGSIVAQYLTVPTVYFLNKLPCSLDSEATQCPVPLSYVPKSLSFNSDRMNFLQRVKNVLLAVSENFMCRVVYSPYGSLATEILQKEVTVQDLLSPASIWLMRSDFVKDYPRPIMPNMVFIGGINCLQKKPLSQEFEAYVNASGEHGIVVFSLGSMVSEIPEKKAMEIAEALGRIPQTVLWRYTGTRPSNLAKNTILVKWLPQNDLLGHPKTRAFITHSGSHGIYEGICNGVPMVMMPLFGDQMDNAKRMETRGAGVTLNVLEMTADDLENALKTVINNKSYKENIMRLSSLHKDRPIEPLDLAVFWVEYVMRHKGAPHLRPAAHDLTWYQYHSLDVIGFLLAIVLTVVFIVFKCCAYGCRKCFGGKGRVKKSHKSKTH
Description: Their IC50 values were compared to that of sauchinone. […] Mice were sacrificed and then livers were removed and rinsed with saline. After weighing the livers, they were homogenized with a four-fold volume of ice-cold homogenizing buffer (0.154 M KCl, 50 mM Tris-base, 1 mM EDTA, pH 7.4). After centrifugation for 35 min at 9000× g and 4 °C, the supernatants were centrifuged for 95 min at 100,000× g and at 4 °C. The supernatants were discarded and the pellets were homogenized again with ice-cold homogenizing buffer. These aliquots were stored at −80 °C. The subsequent process to evaluate the inhibitory effects of sauchinone on UGT activities in MLM was the same as those using HLM. UGT-mediated activities in the presence of sauchinone as an inhibitor were expressed as percentages of corresponding control values (in absence of sauchinone). From percentages of control activity versus inhibitor concentrations, a sigmoid shaped curve was fitted to the data and IC50 as an enzyme inhibition parameter was calculated by fitting the Hill equation to the data using GraphPad Prism 5 (GraphPad Software Inc., San Diego, CA, USA).

- Ki [2]: 1.08 µM
- inhibition mode on UGT1A6 [2]: noncompetitively inhibited
- inhibition mode on UGT1A6 ([2]; listed as sauchinone): noncompetitive inhibition mode
- Vmax for UGT1A6-mediated serotonin glucuronidation with inhibitor ([2]; sauchinone as inhibitor at 50 μM (decrease from 174 at 0 μM)): 6.36 μM/min/mg protein
- IC50 [3]: 152 µM
Structure (SMILES): C[C@@H]1[C@H]2c3cc4c(cc3O[C@@]35OCOC3=CC(=O)[C@H](C[C@H]1C)[C@@H]25)OCO4 [Sauchinone]
- Cmax [1]: 1530 nM
